From patent US12479847B2 (DANA-FARBER CANCER INSTITUTE, INC., priority 2019, dated 2025)

Assays:
panel of 468 kinases [1] = biological target: T1, panel of 468 kinases (Homo sapiens, UniProt Q92630); experiment: KINOMEscan (ScanMAX) kinase profiling; type: binding; settings: DYRK2; 1 μM; read-out: % control
T1 construct: purchased KINOMEscan (ScanMAX) service
T1 sequence (Q92630 1-601): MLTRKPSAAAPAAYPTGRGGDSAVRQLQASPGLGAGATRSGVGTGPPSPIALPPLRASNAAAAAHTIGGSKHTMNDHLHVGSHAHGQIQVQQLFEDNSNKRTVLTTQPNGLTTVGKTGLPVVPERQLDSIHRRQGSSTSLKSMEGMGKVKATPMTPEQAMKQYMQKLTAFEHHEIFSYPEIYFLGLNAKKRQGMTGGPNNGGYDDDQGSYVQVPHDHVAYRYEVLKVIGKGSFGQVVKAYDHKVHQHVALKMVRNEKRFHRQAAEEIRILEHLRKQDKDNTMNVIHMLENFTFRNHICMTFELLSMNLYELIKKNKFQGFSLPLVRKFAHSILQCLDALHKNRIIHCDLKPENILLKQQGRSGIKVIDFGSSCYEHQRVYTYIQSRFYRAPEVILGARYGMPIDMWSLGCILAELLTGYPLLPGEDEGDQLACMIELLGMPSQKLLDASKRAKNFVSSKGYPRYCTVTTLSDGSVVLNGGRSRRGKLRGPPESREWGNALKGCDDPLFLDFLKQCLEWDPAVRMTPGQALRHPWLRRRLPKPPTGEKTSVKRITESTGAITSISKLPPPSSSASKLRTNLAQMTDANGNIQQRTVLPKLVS

panel of 468 kinases [2] = biological target: T2, panel of 468 kinases (Homo sapiens, UniProt P52333); experiment: KINOMEscan (ScanMAX) kinase profiling; type: binding; settings: JAK3(JH1domain-catalytic); 1 μM; read-out: % control
T2 construct: purchased KINOMEscan (ScanMAX) service
T2 sequence (P52333 1-1124): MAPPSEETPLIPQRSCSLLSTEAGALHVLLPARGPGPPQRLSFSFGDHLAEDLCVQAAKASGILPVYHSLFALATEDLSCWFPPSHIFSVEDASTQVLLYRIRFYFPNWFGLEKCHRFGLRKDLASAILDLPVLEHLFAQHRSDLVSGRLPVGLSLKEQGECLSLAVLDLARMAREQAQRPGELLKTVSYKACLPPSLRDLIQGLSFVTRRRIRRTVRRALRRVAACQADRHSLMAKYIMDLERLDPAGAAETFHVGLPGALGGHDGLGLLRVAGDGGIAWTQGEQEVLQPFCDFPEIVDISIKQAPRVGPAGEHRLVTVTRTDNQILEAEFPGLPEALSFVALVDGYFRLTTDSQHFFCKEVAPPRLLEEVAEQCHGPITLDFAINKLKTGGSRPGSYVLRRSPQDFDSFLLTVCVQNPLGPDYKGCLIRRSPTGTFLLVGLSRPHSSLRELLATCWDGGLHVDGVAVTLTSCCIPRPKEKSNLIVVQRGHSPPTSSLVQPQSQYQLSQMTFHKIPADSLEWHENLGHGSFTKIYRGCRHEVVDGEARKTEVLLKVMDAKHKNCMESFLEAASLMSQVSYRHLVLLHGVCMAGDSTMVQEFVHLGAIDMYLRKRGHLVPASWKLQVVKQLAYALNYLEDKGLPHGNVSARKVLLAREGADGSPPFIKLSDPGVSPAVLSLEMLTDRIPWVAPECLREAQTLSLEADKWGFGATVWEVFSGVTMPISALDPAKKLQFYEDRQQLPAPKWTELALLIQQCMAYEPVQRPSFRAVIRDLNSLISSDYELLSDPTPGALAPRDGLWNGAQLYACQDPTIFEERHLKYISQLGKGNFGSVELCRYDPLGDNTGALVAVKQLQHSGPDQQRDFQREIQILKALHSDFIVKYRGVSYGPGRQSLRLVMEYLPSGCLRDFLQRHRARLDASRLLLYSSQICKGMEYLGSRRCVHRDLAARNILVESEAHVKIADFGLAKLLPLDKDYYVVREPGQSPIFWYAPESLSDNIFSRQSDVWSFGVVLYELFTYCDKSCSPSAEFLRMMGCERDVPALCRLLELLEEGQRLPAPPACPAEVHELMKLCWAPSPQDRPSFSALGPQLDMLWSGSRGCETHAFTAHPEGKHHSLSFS

panel of 468 kinases [3] = biological target: T3, panel of 468 kinases (Homo sapiens, UniProt Q13882); experiment: KINOMEscan (ScanMAX) kinase profiling; type: binding; settings: BRK; 1 μM; read-out: % control
T3 construct: purchased KINOMEscan (ScanMAX) service

panel of 468 kinases [4] = biological target: T4, panel of 468 kinases (Homo sapiens, UniProt Q9NQU5); experiment: KINOMEscan (ScanMAX) kinase profiling; type: binding; settings: PAK6; 1 μM; read-out: % control
T4 construct: purchased KINOMEscan (ScanMAX) service

panel of 468 kinases [5] = biological target: T5, panel of 468 kinases (Homo sapiens, UniProt Q99558); experiment: KINOMEscan (ScanMAX) kinase profiling; type: binding; settings: NIK; 1 μM; read-out: % control
T5 construct: purchased KINOMEscan (ScanMAX) service

panel of 468 kinases [6] = biological target: T6, panel of 468 kinases (Homo sapiens, UniProt P43405); experiment: KINOMEscan (ScanMAX) kinase profiling; type: binding; settings: SYK; 1 μM; read-out: % control
T6 construct: purchased KINOMEscan (ScanMAX) service

wild-type LRKK2 = biological target: T7, wild-type LRKK2 (Mus musculus, UniProt Q5S006); experiment: LRRK2 immunoblot, phosphorylation of Ser935, NIH-3T3 cell lysates; type: cell-based; settings: FIG. 1
T7 construct: endogenous in cells; host or cells: NIH-3T3
Method: Cell lysates were extracted from the NIH-3T3 cell pellet using lysis buffer (40 mM Tris-HCl pH 8.0, 120 mM NaCl, 0.10% Nonidet™-P40) supplemented with protease inhibitors. Proteins in whole-cell lysates were separated by SDS-PAGE and transferred to an Amersham™ nitrocellulose membrane (Amersham, UK). Nitrocellulose membranes were blocked with 5% skim milk in phosphate-buffered saline containing Tween 20 and incubated with primary antibodies overnight at 4° C. The blots were then incubated with the appropriate horseradish peroxidase (HRP)-conjugated secondary antibodies and proteins were visualized by enhanced chemiluminescence, according to the manufacturer's protocol (Amersham™ Western blotting). Secondary antibodies, anti-rabbit IgG-HRP were purchased from Cell Signaling technology. Immunoblot film were scanned on a LAS500 scanner, and images were managed with Adobe Photoshop

T4 sequence (Q9NQU5 whole entry): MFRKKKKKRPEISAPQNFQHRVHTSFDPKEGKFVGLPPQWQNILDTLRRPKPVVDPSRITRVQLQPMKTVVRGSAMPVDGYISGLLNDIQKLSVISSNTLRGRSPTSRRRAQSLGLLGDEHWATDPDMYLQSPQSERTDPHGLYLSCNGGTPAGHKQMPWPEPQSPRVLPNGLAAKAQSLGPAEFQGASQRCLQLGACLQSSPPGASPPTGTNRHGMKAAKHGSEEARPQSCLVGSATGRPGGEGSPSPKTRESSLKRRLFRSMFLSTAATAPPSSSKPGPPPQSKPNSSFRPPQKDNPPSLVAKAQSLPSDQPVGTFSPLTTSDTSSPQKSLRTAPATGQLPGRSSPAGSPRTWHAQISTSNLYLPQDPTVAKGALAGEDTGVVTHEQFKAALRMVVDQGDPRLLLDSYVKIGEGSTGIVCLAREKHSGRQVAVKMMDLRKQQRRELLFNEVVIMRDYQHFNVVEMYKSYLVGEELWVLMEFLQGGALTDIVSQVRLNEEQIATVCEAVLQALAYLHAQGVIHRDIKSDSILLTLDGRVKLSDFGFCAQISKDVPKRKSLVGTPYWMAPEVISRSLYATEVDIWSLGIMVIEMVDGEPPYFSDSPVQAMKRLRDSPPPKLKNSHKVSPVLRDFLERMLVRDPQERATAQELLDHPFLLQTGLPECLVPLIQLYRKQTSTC
T5 sequence (Q99558 whole entry): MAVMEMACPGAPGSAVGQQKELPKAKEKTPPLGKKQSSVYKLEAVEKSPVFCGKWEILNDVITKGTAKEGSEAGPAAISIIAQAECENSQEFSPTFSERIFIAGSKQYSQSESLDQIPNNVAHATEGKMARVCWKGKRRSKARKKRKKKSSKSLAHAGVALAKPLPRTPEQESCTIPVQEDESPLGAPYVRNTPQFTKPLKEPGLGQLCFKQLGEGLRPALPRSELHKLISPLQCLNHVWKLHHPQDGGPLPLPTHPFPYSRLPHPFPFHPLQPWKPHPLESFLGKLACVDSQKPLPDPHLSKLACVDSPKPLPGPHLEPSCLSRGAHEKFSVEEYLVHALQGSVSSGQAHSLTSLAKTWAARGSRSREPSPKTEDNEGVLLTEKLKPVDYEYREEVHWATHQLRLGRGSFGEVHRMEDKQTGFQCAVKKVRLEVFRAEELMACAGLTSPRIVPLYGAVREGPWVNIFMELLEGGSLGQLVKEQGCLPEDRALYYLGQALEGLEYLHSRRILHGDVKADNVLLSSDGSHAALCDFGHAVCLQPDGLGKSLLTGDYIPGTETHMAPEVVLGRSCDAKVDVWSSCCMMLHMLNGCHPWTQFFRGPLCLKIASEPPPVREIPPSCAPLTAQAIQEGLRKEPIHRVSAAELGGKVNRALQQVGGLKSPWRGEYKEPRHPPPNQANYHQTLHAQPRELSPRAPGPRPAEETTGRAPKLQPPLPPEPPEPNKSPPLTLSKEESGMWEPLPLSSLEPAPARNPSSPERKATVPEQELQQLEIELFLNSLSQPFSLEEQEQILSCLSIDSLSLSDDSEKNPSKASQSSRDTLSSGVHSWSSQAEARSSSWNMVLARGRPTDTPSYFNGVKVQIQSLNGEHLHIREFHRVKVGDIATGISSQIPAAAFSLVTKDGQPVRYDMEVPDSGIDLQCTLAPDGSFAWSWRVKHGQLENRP
T3 sequence (Q13882 whole entry): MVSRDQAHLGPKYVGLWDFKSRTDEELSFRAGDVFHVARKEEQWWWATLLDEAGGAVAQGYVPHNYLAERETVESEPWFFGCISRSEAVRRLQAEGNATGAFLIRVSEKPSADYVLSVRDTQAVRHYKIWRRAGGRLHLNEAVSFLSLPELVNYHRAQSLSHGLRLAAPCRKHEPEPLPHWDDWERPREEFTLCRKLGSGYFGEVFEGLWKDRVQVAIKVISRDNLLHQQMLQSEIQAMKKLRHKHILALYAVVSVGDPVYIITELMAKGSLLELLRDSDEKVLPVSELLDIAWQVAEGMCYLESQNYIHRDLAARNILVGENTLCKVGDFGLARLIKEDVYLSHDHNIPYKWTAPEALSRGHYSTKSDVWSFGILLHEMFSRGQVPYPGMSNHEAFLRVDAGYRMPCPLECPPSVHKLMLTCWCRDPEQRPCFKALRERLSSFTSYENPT
T7 sequence (Q5S006 whole entry): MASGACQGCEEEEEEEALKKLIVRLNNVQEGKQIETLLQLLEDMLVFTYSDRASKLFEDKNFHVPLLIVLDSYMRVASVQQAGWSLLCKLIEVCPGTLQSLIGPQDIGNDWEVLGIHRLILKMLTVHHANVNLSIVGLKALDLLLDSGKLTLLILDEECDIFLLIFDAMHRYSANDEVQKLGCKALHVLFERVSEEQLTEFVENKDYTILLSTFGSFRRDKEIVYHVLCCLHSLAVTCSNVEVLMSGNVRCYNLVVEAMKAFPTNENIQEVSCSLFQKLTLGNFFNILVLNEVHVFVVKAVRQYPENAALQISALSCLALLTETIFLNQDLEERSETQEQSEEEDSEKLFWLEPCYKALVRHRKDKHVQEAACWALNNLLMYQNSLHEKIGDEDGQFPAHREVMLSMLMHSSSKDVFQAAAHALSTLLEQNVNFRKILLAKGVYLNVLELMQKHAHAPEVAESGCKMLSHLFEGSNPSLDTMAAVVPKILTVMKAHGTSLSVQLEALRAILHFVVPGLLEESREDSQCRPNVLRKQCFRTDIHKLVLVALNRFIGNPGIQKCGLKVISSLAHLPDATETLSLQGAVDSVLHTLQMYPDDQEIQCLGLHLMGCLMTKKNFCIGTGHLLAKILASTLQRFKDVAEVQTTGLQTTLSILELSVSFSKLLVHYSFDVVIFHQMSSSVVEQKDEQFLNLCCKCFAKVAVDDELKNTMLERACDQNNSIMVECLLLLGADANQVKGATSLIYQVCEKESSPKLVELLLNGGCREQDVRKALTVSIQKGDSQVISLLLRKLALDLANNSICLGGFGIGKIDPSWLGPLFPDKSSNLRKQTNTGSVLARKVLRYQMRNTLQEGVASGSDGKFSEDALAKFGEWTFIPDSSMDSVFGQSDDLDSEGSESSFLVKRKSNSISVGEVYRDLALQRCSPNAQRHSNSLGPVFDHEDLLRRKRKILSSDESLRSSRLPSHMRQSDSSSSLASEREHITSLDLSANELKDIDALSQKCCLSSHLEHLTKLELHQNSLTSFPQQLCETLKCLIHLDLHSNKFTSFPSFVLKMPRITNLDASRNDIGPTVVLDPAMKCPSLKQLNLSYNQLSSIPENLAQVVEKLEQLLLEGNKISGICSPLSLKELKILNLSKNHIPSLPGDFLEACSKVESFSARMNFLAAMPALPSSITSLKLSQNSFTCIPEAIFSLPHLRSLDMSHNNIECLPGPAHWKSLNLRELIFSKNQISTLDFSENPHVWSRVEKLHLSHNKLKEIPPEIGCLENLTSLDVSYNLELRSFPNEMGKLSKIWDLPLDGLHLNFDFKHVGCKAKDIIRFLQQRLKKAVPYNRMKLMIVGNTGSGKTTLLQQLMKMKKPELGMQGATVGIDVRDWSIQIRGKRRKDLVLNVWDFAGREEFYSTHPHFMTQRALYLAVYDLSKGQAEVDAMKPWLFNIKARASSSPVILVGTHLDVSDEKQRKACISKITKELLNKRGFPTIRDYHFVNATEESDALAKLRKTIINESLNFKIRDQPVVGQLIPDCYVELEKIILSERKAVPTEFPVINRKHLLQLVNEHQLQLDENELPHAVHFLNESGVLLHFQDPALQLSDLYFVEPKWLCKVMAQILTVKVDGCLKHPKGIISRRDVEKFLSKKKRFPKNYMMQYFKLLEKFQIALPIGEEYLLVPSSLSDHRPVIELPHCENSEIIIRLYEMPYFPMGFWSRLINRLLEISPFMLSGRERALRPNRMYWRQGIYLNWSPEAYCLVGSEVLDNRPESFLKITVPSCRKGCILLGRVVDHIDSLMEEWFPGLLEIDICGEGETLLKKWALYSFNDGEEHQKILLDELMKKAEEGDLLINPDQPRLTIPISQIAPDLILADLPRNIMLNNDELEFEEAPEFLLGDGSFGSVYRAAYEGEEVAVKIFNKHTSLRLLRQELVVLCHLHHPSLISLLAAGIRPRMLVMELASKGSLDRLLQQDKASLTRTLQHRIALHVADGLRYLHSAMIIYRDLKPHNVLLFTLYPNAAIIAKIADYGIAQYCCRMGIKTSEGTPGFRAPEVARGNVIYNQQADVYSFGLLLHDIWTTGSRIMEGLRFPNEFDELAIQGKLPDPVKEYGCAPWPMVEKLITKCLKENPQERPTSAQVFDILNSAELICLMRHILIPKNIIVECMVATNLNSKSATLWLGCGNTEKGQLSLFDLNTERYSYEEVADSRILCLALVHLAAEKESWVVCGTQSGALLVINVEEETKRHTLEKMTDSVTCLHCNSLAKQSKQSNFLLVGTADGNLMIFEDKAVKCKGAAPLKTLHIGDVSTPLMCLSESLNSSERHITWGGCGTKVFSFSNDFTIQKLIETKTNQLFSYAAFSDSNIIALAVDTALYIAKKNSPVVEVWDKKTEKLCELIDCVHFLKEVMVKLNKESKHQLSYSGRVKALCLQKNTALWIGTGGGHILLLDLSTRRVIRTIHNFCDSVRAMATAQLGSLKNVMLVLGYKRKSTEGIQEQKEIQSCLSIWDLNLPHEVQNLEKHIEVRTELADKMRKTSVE

CNc1nc(Nc2ccc(C(=O)N3CCC(N4CCOCC4)CC3)c3c2OCO3)nc2[nH]cc(Cl)c12 [Compound 75, (7-((5-chloro-4-(methylamino)-7H-pyrrolo[2,3-d]pyrimidin-2-yl)amino)benzo[d][1,3]dioxol-4-yl)(4-morpholinopiperidin-1-yl)methanone]
remaining binding at 1 µM (panel of 468 kinases [1]): 14%
remaining binding at 1 µM (panel of 468 kinases [2]): 25%
remaining binding at 1 µM (panel of 468 kinases [3]): 99%
remaining binding at 1 µM (panel of 468 kinases [4]): 100%
remaining binding at 1 µM (panel of 468 kinases [5]): 0%
remaining binding at 1 µM (panel of 468 kinases [6]): 35%

CNc1nc(Nc2ccc(S(=O)(=O)N3CCC(N4CCOCC4)CC3)cc2OC)nc2[nH]cc(Cl)c12 [Compound 12, 5-chloro-N2-(2-methoxy-4-((4-morpholinopiperidin-1-yl)sulfonyl)phenyl)-N4-methyl-7H-pyrrolo[2,3-d]pyrimidine-2,4-diamine]
remaining binding at 1 µM (panel of 468 kinases [1]): 13%
remaining binding at 1 µM (panel of 468 kinases [2]): 77%
remaining binding at 1 µM (panel of 468 kinases [3]): 100%
remaining binding at 1 µM (panel of 468 kinases [4]): 100%
remaining binding at 1 µM (panel of 468 kinases [5]): 9.2%
remaining binding at 1 µM (panel of 468 kinases [6]): 55%

CNc1nc(Nc2ccc(P3(=O)CCN(C4CCOCC4)CC3)cc2OC)nc2[nH]cc(Cl)c12 [Compound 77, 4-(4-((5-chloro-4-(methylamino)-7H-pyrrolo[2,3-d]pyrimidin-2-yl)amino)-3-methoxyphenyl)-1-(tetrahydro-2H-pyran-4-yl)-1,4-azaphosphinane 4-oxide]
inhibition of the phosphorylation of Ser935 in wild-type LRKK2 (wild-type LRKK2): inhibited the phosphorylation of Ser935 in wild-type LRKK2 with potency similar to known LRRK2 inhibitor LRRK2-IN-1
remaining binding at 1 µM (panel of 468 kinases [1]): 47%
remaining binding at 1 µM (panel of 468 kinases [2]): 86%
remaining binding at 1 µM (panel of 468 kinases [3]): 94%
remaining binding at 1 µM (panel of 468 kinases [4]): 95%
remaining binding at 1 µM (panel of 468 kinases [5]): 16%
remaining binding at 1 µM (panel of 468 kinases [6]): 43%
